Measurements as given in patent US20120302629A1, “BIOMARKERS FOR GOSSYPOL CHEMOTHERAPY AND METHODS OF TREATING DISEASE” (THE REGENTS OF THE UNIVERSITY OF MICHIGAN, priority 2009, published 2012).

Legend:
[1] = tested on: Bcl-2 family proteins in 2LMP cells; assay: Western blot of whole cell lysates; format: cell-based, human
Protocol: (§1) Western blot assay: Proteins were harvested in RIPA buffer, then electrophoresed on 4-20% gradient SDS-PAGE gels (Invitrogen, Grand Island, N.Y.) and transferred to PVDF membranes. The membranes were blocked in 5% milk and then incubated with specific primary antibody, followed by secondary antibody. The signals were visualized with the chemiluminescent HRP antibody detection reagent (Deville Scientific, Metuchen, N.J.).

[2] = tested on: Bcl-2 family proteins in PC-3 cells; assay: Western blot of whole cell lysates; format: cell-based, human; details: 10 μM
Protocol: as §1

[3] = tested on: caspase-9 and -3/-7 in 2LMP cells; assay: Fluorometric caspase activity assays; format: cell-based, human; details: 5 μM
Protocol: Fluorometric caspase activity assays: Cells were harvested in cell lysis buffer provided by Biovision research products (Mountain View, Calif.). 20 μg of protein was evaluated for caspase activity by incubating with fluorogenic caspase-3 or -9 substrate (EMD Biosciences) in reaction buffer (Biovision). Detection of cleavage of substrate Ac-DEVD-AFC (preferentially cleaved by caspase-3) and Ac-LEHD-AFC (preferentially cleaved by caspase-9) were measured at a λexc=400 nm and λem=505 nm using a Telcan Ultra plate reader (Männedorf, Switzerland). Experiments were performed in triplicate.

Bcl-xL = Bcl-xL (Homo sapiens, UniProt Q07817); details: Wang et al., J. Med. Chem. 49:6139 (2006); cited from earlier work
RKO colon cancer cells = assay: Cell death after c-Myc knock-down; format: cell-based; details: p53 wild-type, c-Myc siRNA
Protocol: (§2) Cell Growth, Cell Death, and Apoptosis: Cell growth inhibition by (−)-gossypol was determined in a water-soluble tetrazolium (WST)-based assay, as described previously (Shangary et al., Proc. Natl. Acad. Sci. USA 105:3933 (2008)). Cell viability was determined by trypan blue due exclusion as described (Shangary et al., Proc. Natl. Acad. Sci. USA 105:3933 (2008)). Experiments were done in triplicate. To examine apoptosis, cells were stained with Annexin V and PI and analyzed by flow cytometery using an Annexin V-FITC staining kit (Roche Applied Science, Indianapolis, Ind.) according to manufacturer's instructions. Briefly, cells were treated and collected by centrifugation, washed with PBS once and then stained with annexinV-FITC and PI for 15 min at room temperature in the dark. Stained cells were analyzed in a FACS caliber flow cytometer. AnnexinV positive cells are considered as apoptotic cells.
(§3) RNA interference: Gene specific double-stranded RNA oligonucleotide targeting Noxa, Puma, c-Myc, HIF1-α, E2F1#2, Bax, Bak, were purchased from Dharmacon RNAi technologies as Sigenome on-targetplus SMARTpool duplex (Lafayette, Colo.). SiRNA of E2F#1 was purchased from Santa Cruz. As a negative control, siRNA against GFP target sequence 5′-[…]-3′ was employed (Qiagen, Valencia, Calif.). […]

Bcl-2 = Bcl-2 (Homo sapiens, UniProt P10415); details: Wang et al., J. Med. Chem. 49:6139 (2006); cited from earlier work
Mcl-1 = Mcl-1 (Homo sapiens, UniProt Q07820); details: Wang et al., J. Med. Chem. 49:6139 (2006); cited from earlier work
FF (fibroblast) cells = assay: Cell death (trypan blue) and western blot in normal cells; format: cell-based, human
Protocol: as §2, §1

HMEC cells = assay: as above; format: cell-based, human
Protocol: as §2, §1

MCF-12F cells = assay: as above; format: cell-based, human
Protocol: as §2, §1

wild-type MEF cells = assay: Apoptosis (Annexin V/PI flow cytometry) in MEF cells; format: cell-based; details: 24 h
Protocol: as §2

MEF Bax/Bak KO cells = assay: as above; format: cell-based; details: for cells to undergo apoptosis: 24 h
Protocol: as §2

PC-3 cells [4] = assay: Cell death by trypan blue dye exclusion; format: cell-based, human; details: 10 μM
Protocol: as §2

2LMP cells [5] = assay: Cell death by trypan blue dye exclusion; format: cell-based, human
Protocol: as §2

PC-3 cells [6] = assay: WST cell growth assay; format: cell-based, human; details: (−)-gossypol 0.5 and 1 μM, 4 days
Protocol: as §2

2LMP cells [7] = assay: WST cell growth assay; format: cell-based, human; details: (−)-gossypol 0.5 and 1 μM, 4 days
Protocol: as §2

MDA-MB-436 cells = assay: WST cell growth assay; format: cell-based, human; details: (−)-gossypol 0.5 and 1 μM, 4 days
Protocol: as §2

DU145 cells = assay: Cell death (trypan blue) after siRNA knock-down; format: cell-based, human
Protocol: as §2, §3

Bcl-xL, sequence (Q07817 whole entry): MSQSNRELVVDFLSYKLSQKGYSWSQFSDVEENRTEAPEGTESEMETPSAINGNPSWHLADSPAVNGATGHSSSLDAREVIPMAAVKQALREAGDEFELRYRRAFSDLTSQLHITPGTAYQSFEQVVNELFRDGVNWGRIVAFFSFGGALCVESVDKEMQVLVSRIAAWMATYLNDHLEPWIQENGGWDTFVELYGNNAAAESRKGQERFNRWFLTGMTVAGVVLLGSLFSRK
Mcl-1, sequence (Q07820 whole entry): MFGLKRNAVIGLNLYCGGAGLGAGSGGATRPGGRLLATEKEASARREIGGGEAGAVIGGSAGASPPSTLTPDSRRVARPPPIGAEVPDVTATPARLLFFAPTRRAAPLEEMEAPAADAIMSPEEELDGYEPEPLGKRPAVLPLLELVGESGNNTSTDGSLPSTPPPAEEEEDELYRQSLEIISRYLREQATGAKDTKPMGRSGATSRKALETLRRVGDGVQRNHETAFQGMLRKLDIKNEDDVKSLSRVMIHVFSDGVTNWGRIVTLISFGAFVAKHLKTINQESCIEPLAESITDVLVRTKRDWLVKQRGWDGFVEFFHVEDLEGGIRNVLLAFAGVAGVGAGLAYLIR
Bcl-2, sequence (P10415 whole entry): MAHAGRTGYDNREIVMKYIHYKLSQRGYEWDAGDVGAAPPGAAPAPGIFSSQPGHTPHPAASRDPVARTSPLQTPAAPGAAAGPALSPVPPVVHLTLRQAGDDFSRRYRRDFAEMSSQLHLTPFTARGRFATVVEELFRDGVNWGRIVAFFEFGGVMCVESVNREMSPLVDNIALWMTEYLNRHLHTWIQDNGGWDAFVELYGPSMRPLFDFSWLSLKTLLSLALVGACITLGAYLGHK

## Cc1cc2c(C(C)C)c(O)c(O)c(C=O)c2c(O)c1-c1c(C)cc2c(C(C)C)c(O)c(O)c(C=O)c2c1O [(−)-gossypol]
[1]; 10 μM
  earliest time of clear Noxa protein induction: 4 h
  earliest time of dramatic induction of the short forms of Mcl-1: 8 h
  time of Puma protein upregulation: 8 h
[1]; 10 μM, 12 h time-point
  Bcl-xL protein level: significant down-regulation
[1]; 24-h treatment (FIG. 8A)
  lowest concentration with clear induction of Noxa and Puma: 2.5 µM
[2]
  earliest time of clear Noxa protein induction: 4 h
  earliest time of dramatic induction of the short forms of Mcl-1: 8 h
  time of Puma protein upregulation: 8 h
[3]; 24 h treatment
  activity of caspase-9 and -3/-7 induced: 7 fold
[3]; 48 h treatment
  activity of caspase-9 and -3/-7 induced: > 60 fold
Bcl-xL
  binding affinity: low to sub-micromolar
RKO colon cancer cells
  cell death induction upon c-Myc knock-down: effective blockage
Bcl-2
  binding affinity: low to sub-micromolar
Mcl-1
  binding affinity: low to sub-micromolar
FF (fibroblast) cells; 24-48 h treatment at 10 μM
  Noxa induction: not induced
FF (fibroblast) cells; compared to 2LMP cells
  cell death: minimal cell death
HMEC cells; 24-48 h treatment at 10 μM
  Noxa induction: not induced
HMEC cells; compared to 2LMP cells
  cell death: minimal cell death
MCF-12F cells; 24-48 h treatment at 10 μM
  Noxa induction: not induced
MCF-12F cells; compared to 2LMP cells
  cell death: minimal cell death
wild-type MEF cells; 5 μM
  cells to undergo apoptosis: 29%
wild-type MEF cells; 10 μM
  cells to undergo apoptosis: 33%
MEF Bax/Bak KO cells; 5 μM
  cells to undergo apoptosis: 11%
MEF Bax/Bak KO cells; 10 μM
  cells to undergo apoptosis: 13%
MEF Bax/Bak KO cells; 20 μM, versus wild-type MEF
  cell death reduced in the Bax/Bak double knock-out: 25%
PC-3 cells [4]; 24 hour-treatment
  cells to undergo cell death: 30-40%
PC-3 cells [4]; 24 h time-point
  cells lost their viability: approximately 40%
PC-3 cells [4]; 36 h time-point
  cells lost their viability: approximately 70%
PC-3 cells [4]; 48 h time-point
  cells lost their viability: ~100%
PC-3 cells [4]; time course
  cell death at time-points earlier than 12 h: no significant cell death
2LMP cells [5]; 2.5 μM, 48 h treatment
  cells killed: 14%
2LMP cells [5]; 10 μM, 24 hour-treatment (FIG. 1)
  cells to undergo cell death: 30-40%
2LMP cells [5]; 10 μM, 24 h time-point
  cells lost their viability: approximately 40%
2LMP cells [5]; 10 μM, 36 h time-point
  cells lost their viability: approximately 70%
2LMP cells [5]; 10 μM, 48 h time-point
  cells lost their viability: ~100%
2LMP cells [5]; 10 μM, time course
  cell death at time-points earlier than 12 h: no significant cell death
PC-3 cells [6]
  sensitization to ABT-737: effectively sensitize
2LMP cells [7]
  sensitization to ABT-737: effectively sensitize
MDA-MB-436 cells
  sensitization to ABT-737: effectively sensitize
DU145 cells; 18 h, Bax and Bak siRNA
  effect of double knockdown of Bax/Bak on apoptosis induction: modestly reduced
DU145 cells; p53-mutated, c-Myc siRNA
  cell death induction upon c-Myc knock-down: effective blockage
